Measurements as given in patent US12208079B2, “Enantiomers of A2-73, analogues, and sigma agonist activity” (Anavex Life Sciences Corp., priority 2015, dated 2025).

Legend:
[1] = target: σ1 (h) (Homo sapiens, UniProt Q99720); assay: σ1 (h) receptor binding assay, [3H](+)pentazocine; conditions: hydrochloride; for % of Control Specific Binding, 1st / % of Control Specific Binding, 2nd / % of Control Specific Binding, Mean: 1.0E−06 M; for % of Control Specific Binding, 1st: 1st individual value; for % of Control Specific Binding, 2nd: 2nd individual value; for % Inhibition of Control Specific Binding: test concentration 1.0E−06 M
Text: (§1) The specific ligand binding to the receptors is defined as the difference between the total binding and the nonspecific binding determined in the presence of an excess of unlabelled ligand.
(§2) The results are expressed as a percent of control specific binding and as a percent inhibition of control specific binding obtained in the presence of the test compounds. Individual and mean values are presented in the results section.
(§3) The IC50 values (concentration causing a half-maximal inhibition of control specific binding) and Hill coefficients (nH) were determined by non-linear regression analysis of the competition curves using Hill equation curve fitting. The inhibition constants (Ki) were calculated from the Cheng Prusoff equation (Ki=IC50/(1+(L/KD)), where L=concentration of radioligand in the assay, and KD=affinity of the radioligand for the receptor).

[2] = target: T1, σ2 (Rattus norvegicus, UniProt Q5U3Y7); assay: σ2 receptor binding assay, [3H]DTG (+ 300 nM (+)pentazocine); conditions: for % of Control Specific Binding, 1st / % of Control Specific Binding, 2nd / % of Control Specific Binding, Mean: 1.0E−06 M; for % of Control Specific Binding, 1st: 1st individual value; for % of Control Specific Binding, 2nd: 2nd individual value; for % Inhibition of Control Specific Binding: test concentration 1.0E−06 M
T1 sequence (Q5U3Y7 1-176): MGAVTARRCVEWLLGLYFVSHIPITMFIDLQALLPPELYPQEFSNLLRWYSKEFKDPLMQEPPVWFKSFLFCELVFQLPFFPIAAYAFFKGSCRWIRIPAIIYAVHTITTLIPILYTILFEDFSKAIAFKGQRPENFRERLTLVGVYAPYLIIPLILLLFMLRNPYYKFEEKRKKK
Text: as §1, §2, §3

[3] = test system: muscarinic M1 receptors; assay: Isolated organ bioassay, test for agonist activity, field-stimulated rabbit vas deferens; format: biochemical; conditions: for Effect on twitch contraction amplitude (in words): untreated field-stimulated tissues
Method: (§4) Prostatic segments of rabbit vas deferens were suspended in 20-ml organ baths containing an oxygenated (95% O2 and 5% CO2) and pre-warmed (30° C.) physiological salt solution of the following composition (in mM): NaCl 118.0, KCl 4.7, MgSO4 0.6, CaCl2) 2.5, KH2PO4 1.2, NaHCO325 and glucose 11.0 (pH 7.4).
(§5) Yohimbine (1 μM) and naloxone (1 μM) were also present throughout the experiments to block the α2-adrenergic and opioid receptors, respectively.
(§6) The tissues were connected to force transducers for isometric tension recordings. They were stretched to a resting tension of 1 g then allowed to equilibrate for 60 min during which time they were washed repeatedly and the tension readjusted. Thereafter, they were stimulated electrically with square wave pulses (submaximal intensity, 1 msec duration, 0.1 Hz) delivered by a constant current stimulator.
The tissues were exposed to a submaximal concentration of the reference agonist McN-A-343 (1 μM) to verify responsiveness and to obtain a control response. Following washings and recovery of the initial twitch contractions, the tissues were exposed to the test compounds or the same agonist which were left in contact with the tissues until a stable response was obtained or for a maximum of 15 min.
(§7) The parameter measured was the maximum change in the amplitude of the electrically-evoked contractions induced by the compounds.
(§8) The results are expressed as a percent of the control response to McN-A-343 (mean values).

[4] = Neuroprotection in stroke patient (Example 4); format: in vivo; conditions: person, ischemic event of middle cerebral artery, 1 mg i.v.
Method: A person enters the emergency room and is diagnosed with an ischemic event involving the middle cerebral artery, with symptomatology onset being less than 1 hr. Immediately, the patient is administered an i.v. supplemented with 1 mg of ⊖Anevex2-73 substantially free of Anavex2-73 ? while blood supply to the restricted area is restored.

[5] = test system: muscarinic M1 receptors; assay: Isolated organ bioassay, test for antagonist activity, field-stimulated rabbit vas deferens; format: biochemical; conditions: for Response to McN-A-343 (1.0E−06M) in the presence of the compound, percent of the control response: mean, n=2; for Behaviour at the M1 receptors (conclusion): rabbit vas deferens
Method: as §4, §5, §6
The tissues were exposed to a submaximal concentration of the reference agonist McN-A-343 (1 μM) to obtain a control response.
If it occurred, a recovery of the twitch contraction amplitude by the test compounds indicated an antagonist activity at the M1 receptors.
as §7, §8

[6] = in vivo, po
[7] = Treatment of Alzheimer's patients (Examples 1 and 5); format: in vivo
Method: A person diagnosed with early stage Alzheimer's dementia is treated with 10 mg of ⊖Anevex2-73 substantially free of Anavex2-73 ? , once per week for three years.
A patient is diagnosed with AD and treated with 10 mg of ⊖Anevex2-73 substantially free of Anavex2-73 ? daily for 3 yrs.

[8] = Neuroprotection against oxidative (anoxic) stress, balloon ascent (Example 2); format: in vivo; conditions: 10 mgs oral daily for 5 days before ascent to 6,000 meters without oxygen assist
Text: A person balloonist, anticipating anoxic stress, is orally administered 10 mgs of oral ⊖Anevex2-73 substantially free of Anavex2-73 ? daily for 5 days preceding a balloon ascent.

Sequence of σ1 (h) (Q99720 whole entry): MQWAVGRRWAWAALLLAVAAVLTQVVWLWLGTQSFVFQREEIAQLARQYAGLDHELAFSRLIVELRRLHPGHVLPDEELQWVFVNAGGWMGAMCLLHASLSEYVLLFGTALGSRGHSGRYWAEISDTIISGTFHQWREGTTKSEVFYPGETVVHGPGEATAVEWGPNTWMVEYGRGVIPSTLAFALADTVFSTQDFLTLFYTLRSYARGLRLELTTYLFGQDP

Row | Compound | % of Control Specific Binding, 1st [1] | % of Control Specific Binding, 2nd [1] | % of Control Specific Binding, Mean [1] | % Inhibition of Control Specific Binding [1] | % of Control Specific Binding, 1st ([2]; hydrochloride) | % of Control Specific Binding, 2nd ([2]; hydrochloride) | % of Control Specific Binding, Mean ([2]; hydrochloride) | % Inhibition of Control Specific Binding ([2]; hydrochloride) | Effect on twitch contraction amplitude (in words) [3] | Behaviour at the M1 receptors (conclusion) [5] | further results
1 | CN(C)CC1CCOC1(c1ccccc1)c1ccccc1.Cl (single isomer, unassigned; (+)) [(+) A2-73, tetrahydro-N,N-dimethyl-2,2-diphenyl-3-furanmethanamine hydrochloride] | 81.5% | 81.1% | 81.3% | 19% | 88.9% | 83.2% | 86.1% | 14% |  |  | 
2 | CN(C)CC1CCOC1(c1ccccc1)c1ccccc1.Cl (single isomer, unassigned; (-)) [(−) A2-73, tetrahydro-N,N-dimethyl-2,2-diphenyl-3-furanmethanamine hydrochloride] | 50.7% | 50.0% | 50.4% | 50% | 126.1% | 100.6% | 113.4% | −13% | did not decrease the twitch contraction amplitude but caused a slight to moderate increase | behave as antagonists at the M1 receptors | Response to the compound (decrease in twitch contraction amplitude), percent of the control response to McN-A-343 ([3]; compound 1.0E−05M, mean, n=2): −20%; Response to the compound (decrease in twitch contraction amplitude), percent of the control response to McN-A-343 ([3]; compound 5.0E−05M, mean, n=2): −33%; CT/MRI imaging of the affected region [4]: no signs of lesioning in the affected region; Daily testing of cognitive and motor systems [4]: no deficits in physical or mental capacities; Response to McN-A-343 (1.0E−06M) in the presence of the compound, percent of the control response ([5]; compound 1.0E−05M): 16%; Response to McN-A-343 (1.0E−06M) in the presence of the compound, percent of the control response ([5]; compound 5.0E-05M): −1%; Damage after neurotoxin exposure [6]: suffers no damage; Cognitive score ([7]; person with AD, 10 mg daily for 3 yrs): stabilizes and then increases slowly and regularly; Brain content in amyloid peptide oligomers on autopsy ([7]; person, 10 mg once per week for three years): very low content in amyloid peptide oligomers; Mental function tested quarterly ([7]; person, early stage Alzheimer's dementia, 10 mg once per week for three years): does not decrease over the period; Anoxic damage [8]: suffers no anoxic damage
3 | C[N+](C)(C)CC#CCOC(=O)Nc1cccc(Cl)c1.[Cl-] [McN-A-343, reference compound] |  |  |  |  |  |  |  |  | concentration-dependent decrease in the twitch contraction amplitude |  | Response to the compound + pirenzepine, percent of the control response to McN-A-343 ([3]; + pirenzepine (1.0E−07M), mean, n=2): −5%; Response to the compound (decrease in twitch contraction amplitude), percent of the control response to McN-A-343 ([3]; compound 1.0E−06M, mean, n=2): 99%; Response to the compound (decrease in twitch contraction amplitude), percent of the control response to McN-A-343 ([3]; compound 1.0E−07M, mean, n=2): 29%; Response to the compound (decrease in twitch contraction amplitude), percent of the control response to McN-A-343 ([3]; compound 3.0E−07M, mean, n=2): 67%
4 | CN(C)CC1COC(c2ccccc2)(c2ccccc2)C1.Cl (single isomer, unassigned; (+)) [(+) A1-41, tetrahydro-N,N-dimethyl-5,5-diphenyl-3-furanmethanamine hydrochloride] | 35.0% | 32.9% | 34.0% | 66% | 60.0% | 56.8% | 58.4% |  | did not decrease the twitch contraction amplitude but caused a slight to moderate increase | behave as antagonists at the M1 receptors | Response to the compound (decrease in twitch contraction amplitude), percent of the control response to McN-A-343 ([3]; compound 1.0E−05M, mean, n=2, listed as (+) AE 14, hydrochloride): −31%; Response to the compound (decrease in twitch contraction amplitude), percent of the control response to McN-A-343 ([3]; compound 1.0E−06M, mean, n=2, listed as (+) AE 14, hydrochloride): −16%; Response to McN-A-343 (1.0E−06M) in the presence of the compound, percent of the control response ([5]; compound 1.0E−05M, listed as (+) AE 14, hydrochloride): 1%; Response to McN-A-343 (1.0E−06M) in the presence of the compound, percent of the control response ([5]; compound 1.0E−06M, listed as (+) AE 14, hydrochloride): 13%; % Inhibition of Control Specific Binding ([2]; listed as (+) A1-14, hydrochloride): 42%
5 | CN(C)CC1COC(c2ccccc2)(c2ccccc2)C1.Cl (single isomer, unassigned; (-)) [(−) A1-41, tetrahydro-N,N-dimethyl-5,5-diphenyl-3-furanmethanamine hydrochloride] | 35.7% | 33.3% | 34.5% | 65% | 41.0% | 40.3% | 40.7% |  | did not decrease the twitch contraction amplitude but caused a slight to moderate increase | behave as antagonists at the M1 receptors | Response to the compound (decrease in twitch contraction amplitude), percent of the control response to McN-A-343 ([3]; compound 1.0E−05M, mean, n=2, listed as (−) AE 14, hydrochloride): −8%; Response to the compound (decrease in twitch contraction amplitude), percent of the control response to McN-A-343 ([3]; compound 1.0E−06M, mean, n=2, listed as (−) AE 14, hydrochloride): −5%; Response to McN-A-343 (1.0E−06M) in the presence of the compound, percent of the control response ([5]; compound 1.0E−05M, listed as (−) AE 14, hydrochloride): 9%; Response to McN-A-343 (1.0E−06M) in the presence of the compound, percent of the control response ([5]; compound 1.0E−06M, listed as (−) AE 14, hydrochloride): 20%; % Inhibition of Control Specific Binding ([2]; listed as (−) A1-14, hydrochloride): 59%
